For test [1], the target named is T1, hCB1R (Homo sapiens, UniProt P21554). Description: Binding to the CB1 receptor ([3H]-SR141716A displacement). In short, it runs like this: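 [3H]-SR141716A displacement at hCB1R; test compounds at final 10 μM to 0.005 μM in assay buffer with 1% DMSO, duplicate determinations. Low control 1 μM AM 251, high control binding without compound; IC50 from curve fit, converted to Ki via Cheng-Prusoff using Kd.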

A further test concerns the target hCB2R (Homo sapiens, UniProt P34972). The test is described as follows: In vitro functional assay (FLIPR, intracellular Ca2+) with recombinant HEK293 cells, CB2.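 Also: intracellular Ca2+ was tracked with the fluorescent dye Fluo-4 loaded into the cells before test substance addition.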
Test [2] addresses T1, hCB1R. Description: In vitro functional assay (FLIPR, intracellular Ca2+) with recombinant HEK293 cells, CB1. The format is cell-based. Set-up: expressed in transfected cells; host or cells: HEK293. The text has this: In Vitro Functional Assays with Recombinant Cells:
Where [3] appears, read: read-out: hCB2R: FLIPR, IC50, recombinant HEK293 cells expressing CB2 and Galpha16, 20 min preincubation, then reference agonist, Ca2+ change.

Like-named read-outs stand apart in the source and are kept apart here.

Chain of hCB2R (P34972 whole entry): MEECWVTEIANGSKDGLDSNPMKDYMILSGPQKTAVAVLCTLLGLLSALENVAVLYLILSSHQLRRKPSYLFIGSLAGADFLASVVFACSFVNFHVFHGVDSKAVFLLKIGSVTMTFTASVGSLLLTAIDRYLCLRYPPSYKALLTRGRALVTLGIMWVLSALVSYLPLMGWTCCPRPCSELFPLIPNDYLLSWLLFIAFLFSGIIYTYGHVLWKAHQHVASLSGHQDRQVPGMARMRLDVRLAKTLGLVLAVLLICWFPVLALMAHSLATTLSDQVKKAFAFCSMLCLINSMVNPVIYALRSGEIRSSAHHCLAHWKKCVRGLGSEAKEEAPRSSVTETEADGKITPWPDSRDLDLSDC
T1 sequence (P21554 whole entry): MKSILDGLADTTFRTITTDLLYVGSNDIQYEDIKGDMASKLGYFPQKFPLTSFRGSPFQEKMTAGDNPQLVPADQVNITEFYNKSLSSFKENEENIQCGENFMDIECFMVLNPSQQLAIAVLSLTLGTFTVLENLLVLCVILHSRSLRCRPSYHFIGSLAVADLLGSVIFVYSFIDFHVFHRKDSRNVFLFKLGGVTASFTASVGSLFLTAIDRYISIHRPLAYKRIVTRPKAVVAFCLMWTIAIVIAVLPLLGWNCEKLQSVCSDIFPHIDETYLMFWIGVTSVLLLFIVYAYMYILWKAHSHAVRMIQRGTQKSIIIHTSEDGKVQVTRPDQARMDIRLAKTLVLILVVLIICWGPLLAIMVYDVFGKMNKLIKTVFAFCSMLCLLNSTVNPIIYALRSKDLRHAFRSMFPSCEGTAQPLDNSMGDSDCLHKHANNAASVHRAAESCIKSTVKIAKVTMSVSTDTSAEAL
Description for hCB2R: Function-testing assays were performed by means of the FLIPR technique (“Fluorometric Imaging Plate Reader”, Molecular Devices Corp.).
To this end, ligand-induced changes in the intracellular concentration of Ca^2+ in recombinant HEK293 cells, which expressed both a cannabinoid receptor (CB1 or CB2) and G-protein Galpha16, were determined. For the studies, cells were sown into 96-well microtiter plates (60 000 cells/well) and left to grow overnight. The medium was removed and the cells were incubated in buffer which contained the fluorescent dye Fluo-4. After this loading with dye, the cells were washed, test substance was added dissolved in buffer, the mixture was incubated for 20 minutes, a known cannabinoid receptor agonist as a reference agonist was added in buffer and, finally, the changes in the intracellular Ca^2+ concentration were measured in the FLIPR unit.

`CC1(C)C(=O)N(c2ccc(C#N)c(C(F)(F)F)c2)C(=O)N1Cc1ccccc1Nc1ccc(C(F)(F)F)cc1` [Example 5, 4-{3-[2-(4-trifluoromethylphenylamino)benzyl]-4,4-dimethyl-2,5-dioxoimidazolidin-1-yl}-2-trifluoromethylbenzonitrile] registered a Ki on hCB1R [1] of 7 nM. Moreover, the IC50 was more than 10000 nM on hCB2R (setting [3]) and 44 nM on hCB1R [2].
For `CC1(C)C(=O)N(c2ccc(C#N)c(C(F)(F)F)c2)C(=O)N1Cc1ccccc1Nc1ccc(F)cc1F` [Example 11, 4-{3-[2-(2,4-difluorophenylamino)benzyl]-4,4-dimethyl-2,5-dioxoimidazolidin-1-yl}-2-trifluoromethylbenzonitrile] the same measures were 1 nM, more than 10000 nM and 0.7 nM.
The compound `CC1(C)C(=O)N(c2ccc(C#N)c(C(F)(F)F)c2)C(=O)N1Cc1cccc(Cl)c1Nc1ccc(F)cc1F` [Example 42, 4-{3-[5-chloro-6-(2,4-difluorophenylamino)benzyl]-4,4-dimethyl-2,5-dioxoimidazolidin-1-yl}-2-trifluoromethylbenzonitrile] returned a Ki at hCB1R [1] of 1 nM. Also, the IC50 is more than 10000 nM on hCB2R (setting [3]) and 12 nM on hCB1R [2].
Consider `CC1(C)C(=O)N(c2ccc(C#N)c(C(F)(F)F)c2)C(=O)N1Cc1ccc(C(F)(F)F)cc1Nc1ccc(F)cc1F` [Example 56, 4-{3-[2-(2,4-difluorophenylamino)-4-trifluoromethylbenzyl]-4,4-dimethyl-2,5-dioxoimidazolidin-1-yl}-2-trifluoromethylbenzonitrile], for which the Ki at hCB1R [1] turned out to be 3 nM. The IC50 is more than 10000 nM on hCB2R (setting [3]) and 8 nM at hCB1R [2].
In the case of `COC(=O)c1ccc(Nc2ccccc2CN2C(=O)N(c3ccc(C#N)c(C(F)(F)F)c3)C(=O)C2(C)C)cc1` [Example 60, methyl 4-{2-[3-(4-cyano-3-trifluoromethylphenyl)-5,5-dimethyl-2,4-dioxoimidazolidin-1-ylmethyl]phenylamino}benzoate], the Ki at hCB1R [1] stood at 1 nM. Also, the IC50 was more than 10000 nM on hCB2R (setting [3]) and 2 nM on hCB1R [2].
As to `CC(C)(C)c1cc(N2C(=O)N(Cc3ccccc3Nc3ccc(F)cc3F)C(C)(C)C2=O)ccc1C#N` [Example 64, 2-tert-butyl-4-{3-[2-(2,4-difluorophenylamino)benzyl]-4,4-dimethyl-2,5-dioxoimidazolidin-1-yl}benzonitrile], the Ki on hCB1R [1] came to 5 nM. Further, the figures for the IC50 on hCB2R (setting [3]) and on hCB1R [2] were more than 10000 nM and 16 nM, respectively.
As for `CC1(C)C(=O)N(c2ccnc(C(F)(F)F)c2)C(=O)N1Cc1ccccc1Nc1ccc(F)cc1F` [Example 66, 1-[2-(2,4-difluorophenylamino)benzyl]-5,5-dimethyl-3-(2-trifluoromethylpyridin-4-yl)imidazolidine-2,4-dione], the Ki on hCB1R [1] (CHO-K1/cannabinoid CB1 protein 2 μg/well, [3H]-SR141716A 0.5 nM, Ki from IC50 by Cheng-Prusoff, average of double determination, read-out: hCB1R, binding Ki) stood at 7 nM. The IC50 was more than 10000 nM at hCB2R; 25 nM on hCB1R [2] (recombinant HEK293 cells expressing CB1 and Galpha16, 20 min preincubation, then reference agonist, Ca2+ change, read-out: hCB1R: FLIPR, IC50).
For the compound `COc1ccc(Nc2ccccc2CN2C(=O)N(c3ccc(C#N)c(C(F)(F)F)c3)C(=O)C2(C)C)cc1` [Example 67, 4-{3-[2-(4-methoxyphenylamino)benzyl]-4,4-dimethyl-2,5-dioxoimidazolidin-1-yl}-2-trifluoromethylbenzonitrile], on hCB1R [1], the Ki is 1 nM. The IC50 on hCB2R (setting [3]) was more than 10000 nM; on hCB1R [2], 1 nM.
